Experimental data from the NIST ThermoML archive (doi:10.1016/j.jct.2016.03.030).

Experiment: xn = mol fraction of the nth substance listed
Settings: 100 kPa, Liquid; for viscosity: Falling or rolling sphere viscometry; for mass density: Vibrating tube method

CCC[N+]1(C)CCOCC1.[Br-] [4-methyl-4-propylmorpholinium bromide] + O
Settings | mass density [kg/m3] | viscosity [mPa·s]
298.15 K, x1 = 0.0336 | 1084.6 | 1.651
298.15 K, x1 = 0.0618 | 1135.4 | 2.638
298.15 K, x1 = 0.0875 | 1170.4 | 4.066
298.15 K, x1 = 0.1298 | 1213 | 8.208
298.15 K, x1 = 0.1709 | 1242.8 | 15.89
298.15 K, x1 = 0.2036 | 1260.9 | 26.67
298.15 K, x1 = 0.254 | 1282.4 | 62.45
298.15 K, x1 = 0.2742 | 1289.4 | 90.09
298.15 K, x1 = 0.3025 | 1298.2 | 154
303.15 K, x1 = 0.0336 | 1082.5 | 1.45
303.15 K, x1 = 0.0618 | 1132.9 | 2.291
303.15 K, x1 = 0.0875 | 1167.6 | 3.483
303.15 K, x1 = 0.1298 | 1209.9 | 6.823
303.15 K, x1 = 0.1709 | 1239.6 | 12.9
303.15 K, x1 = 0.2036 | 1257.7 | 20.98
303.15 K, x1 = 0.254 | 1279.2 | 46.52
303.15 K, x1 = 0.2742 | 1286.1 | 66.14
303.15 K, x1 = 0.3025 | 1294.9 | 108.8
308.15 K, x1 = 0.0336 | 1080.2 | 1.281
308.15 K, x1 = 0.0618 | 1130.2 | 2.002
308.15 K, x1 = 0.0875 | 1164.7 | 3
308.15 K, x1 = 0.1298 | 1206.8 | 5.723
308.15 K, x1 = 0.1709 | 1236.4 | 10.62
308.15 K, x1 = 0.2036 | 1254.4 | 16.76
308.15 K, x1 = 0.254 | 1275.9 | 35.35
308.15 K, x1 = 0.2742 | 1282.8 | 49.51
308.15 K, x1 = 0.3025 | 1291.6 | 79.28
313.15 K, x1 = 0.0336 | 1077.8 | 1.14
313.15 K, x1 = 0.0618 | 1127.5 | 1.761
313.15 K, x1 = 0.0875 | 1161.7 | 2.61
313.15 K, x1 = 0.1298 | 1203.6 | 4.854
313.15 K, x1 = 0.1709 | 1233.1 | 8.847
313.15 K, x1 = 0.2036 | 1251.1 | 13.62
313.15 K, x1 = 0.254 | 1272.6 | 27.4
313.15 K, x1 = 0.2742 | 1279.5 | 38.4
313.15 K, x1 = 0.3025 | 1288.3 | 59.26
318.15 K, x1 = 0.0336 | 1075.3 | 1.02
318.15 K, x1 = 0.0618 | 1124.7 | 1.559
318.15 K, x1 = 0.0875 | 1158.7 | 2.287
318.15 K, x1 = 0.1298 | 1200.4 | 4.155
318.15 K, x1 = 0.1709 | 1229.9 | 7.459
318.15 K, x1 = 0.2036 | 1247.8 | 11.23
318.15 K, x1 = 0.254 | 1269.2 | 21.7
318.15 K, x1 = 0.2742 | 1276.2 | 30.07
318.15 K, x1 = 0.3025 | 1285.1 | 45.23
323.15 K, x1 = 0.0336 | 1072.3 | 0.909
323.15 K, x1 = 0.0618 | 1121.8 | 1.372
323.15 K, x1 = 0.0875 | 1155.7 | 1.988
323.15 K, x1 = 0.1298 | 1197.2 | 3.541
323.15 K, x1 = 0.1709 | 1226.6 | 6.268
323.15 K, x1 = 0.2036 | 1244.5 | 9.267
323.15 K, x1 = 0.254 | 1265.9 | 17.23
323.15 K, x1 = 0.2742 | 1272.9 | 23.66
323.15 K, x1 = 0.3025 | 1281.7 | 34.94
328.15 K, x1 = 0.0336 | 1069.9 | 0.812
328.15 K, x1 = 0.0618 | 1118.8 | 1.215
328.15 K, x1 = 0.0875 | 1152.5 | 1.742
328.15 K, x1 = 0.1298 | 1193.9 | 3.047
328.15 K, x1 = 0.1709 | 1223.2 | 5.322
328.15 K, x1 = 0.2036 | 1241.1 | 7.756
328.15 K, x1 = 0.254 | 1262.6 | 13.96
328.15 K, x1 = 0.2742 | 1269.5 | 19.1
328.15 K, x1 = 0.3025 | 1278.4 | 27.52
333.15 K, x1 = 0.0336 | 1066.3 | 0.736
333.15 K, x1 = 0.0618 | 1115.5 | 1.088
333.15 K, x1 = 0.0875 | 1149.1 | 1.547
333.15 K, x1 = 0.1298 | 1190.6 | 2.654
333.15 K, x1 = 0.1709 | 1219.9 | 4.582
333.15 K, x1 = 0.2036 | 1237.8 | 6.587
333.15 K, x1 = 0.254 | 1259.2 | 11.53
333.15 K, x1 = 0.2742 | 1266.2 | 15.71
333.15 K, x1 = 0.3025 | 1275.1 | 22.11
338.15 K, x1 = 0.0336 | 1064.5 | 0.668
338.15 K, x1 = 0.0618 | 1113.1 | 0.979
338.15 K, x1 = 0.0875 | 1145.3 | 1.378
338.15 K, x1 = 0.1298 | 1187.3 | 2.426
338.15 K, x1 = 0.1709 | 1216.5 | 4.142
338.15 K, x1 = 0.2036 | 1234.4 | 5.636
338.15 K, x1 = 0.254 | 1255.9 | 9.633
338.15 K, x1 = 0.2742 | 1262.9 | 12.97
338.15 K, x1 = 0.3025 | 1271.7 | 18.05
343.15 K, x1 = 0.0336 | 1061.9 | 0.63
343.15 K, x1 = 0.0618 | 1110.2 | 0.925
343.15 K, x1 = 0.0875 | 1142 | 1.303
343.15 K, x1 = 0.1298 | 1183.9 | 2.269
343.15 K, x1 = 0.1709 | 1213.1 | 4.062
343.15 K, x1 = 0.2036 | 1231 | 4.879
343.15 K, x1 = 0.254 | 1252.5 | 8.213
343.15 K, x1 = 0.2742 | 1259.5 | 10.96
343.15 K, x1 = 0.3025 | 1268.4 | 14.99
